Our source for the melting point values is patent publication US20020086893A1, “Medicament” (SmithKline Beecham p.l.c., priority 1990, published 2002).

Structures can show the parent of a compound that is named as a salt.

For the compound `CCCCc1ncc(CC(Cc2ccccc2)C(=O)O)n1Cc1ccccc1Cl` (stereo not drawn) (as salt: hydrochloride) [Example 2, 3-[2-n-Butyl-1-{(2-chlorophenyl)methyl}-1H-imidazol-5-yl]-2-benzylpropanoic Acid], the melting point was 118 to 120 °C.
With `CCCSc1ncc(C[C@H](NC(=O)CCC)C(=O)O)n1Cc1ccccc1Cl` [Example 1, 3-[(2-Chlorophenyl)methyl]-2-propylthio-N-butyrylhistidine] the figure was 178 to 181 °C; with `CCCCc1nc2cc(Br)cc(C(=O)O)c2n1Cc1ccccc1Cl` [Example 4, 5-Bromo-2-n-butyl-1-(2-chlorophenyl)methyl-1H-benzimidazole-7-carboxylic Acid], 254 to 255 °C.

The term melting point denotes the temperature, or range, at which the solid turns liquid.
